According to patent US20220220152A1, “BIVALENT ANTAGONISTS OF INHIBITORS OF APOPTOSIS PROTEINS” (Hepagene Therapeutics (HK) Limited, priority 2019, published 2022):

What was measured:
cIAP2-BIR3 = target: T1, cIAP2-BIR3 (Homo sapiens, UniProt Q13489); experiment: cIAP2-BIR3 fluorescence polarization binding assay; details: FP, probe AbuRPFK-5FAM (SM5F) 5 nM, cIAP2-BIR3 80 nM, 60 min at 25° C.
T1 construct: cIAP2-BIR3; purchased Reaction Biology APT-11-372
Summary of the method: (§1)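 Fluorescence polarization competition using 5-carboxyfluorescein-labelled peptide probe AbuRPFK-5FAM; protein and compound preincubated 15 min, probe added, then 60 min at 25° C.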

XIAP-BIR3 = target: T2, XIAP-BIR3 (Homo sapiens, UniProt P98170); experiment: XIAP-BIR3 fluorescence polarization binding assay; details: FP, probe AbuRPFK-5FAM (SM5F) 5 nM, XIAP-BIR3 40 nM, 60 min at 25° C.
T2 construct: XIAP-BIR3; purchased Reaction Biology APT-11-374
Summary of the method: as §1

cIAP1-BIR3 = target: T3, cIAP1-BIR3 (Homo sapiens, UniProt Q13490); experiment: cIAP1-BIR3 fluorescence polarization binding assay; details: FP, probe AbuRPFK-5FAM (SM5F) 5 nM, cIAP1-BIR3 15 nM, 60 min at 25° C.
T3 construct: cIAP1-BIR3; purchased Reaction Biology APT-11-370
Summary of the method: as §1

T3 sequence (Q13490 253-363 limits assumed): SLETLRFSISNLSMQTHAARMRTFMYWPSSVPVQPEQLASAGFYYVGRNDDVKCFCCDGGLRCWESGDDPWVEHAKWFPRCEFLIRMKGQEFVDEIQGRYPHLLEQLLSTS
T2 sequence (P98170 241-356 limits assumed): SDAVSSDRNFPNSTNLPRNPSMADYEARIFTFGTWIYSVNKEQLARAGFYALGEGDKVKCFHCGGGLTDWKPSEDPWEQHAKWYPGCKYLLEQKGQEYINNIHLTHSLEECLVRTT
T1 sequence (Q13489 238-349 limits assumed): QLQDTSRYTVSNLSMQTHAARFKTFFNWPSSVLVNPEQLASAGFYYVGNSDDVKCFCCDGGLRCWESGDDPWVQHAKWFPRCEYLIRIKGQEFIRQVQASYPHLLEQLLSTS

IC50 (cIAP2-BIR3)	IC50 (XIAP-BIR3)	IC50 (cIAP1-BIR3)	SMILES
10 to 100 nM	10 to 100 nM	1 to 10 nM	CN[C@@H](C)C(=O)N[C@H](C(=O)N1CCC[C@H]1C(=O)N[C@@H]1CCCc2c(Nc3cccc4c3CCC[C@H]4NC(=O)[C@@H]3CCCN3C(=O)[C@@H](NC(=O)[C@H](C)NC)C3CCOCC3)cccc21)C1CCOCC1 [Compound VI-A, (S)-1-((S)-2-((S)-2-(methylamino)propanamido)-2-(tetrahydro-2H-pyran-4-yl)acetyl)-N—((R)-5-(((R)-5-((S)-1-((S)-2-((S)-2-(methylamino)propanamido)-2-(tetrahydro-2H-pyran-4-yl)acetyl)pyrrolidine-2-carboxamido)-5,6,7,8-tetrahydronaphthalen-1-yl)amino)-1,2,3,4-tetrahydronaphthalen-1-yl)pyrrolidine-2-carboxamide]
10 to 100 nM	100 to 1000 nM	1 to 10 nM	CN[C@@H](C)C(=O)N[C@H](C(=O)N1CCC[C@H]1C(=O)N[C@@H]1CCCc2c(-c3ccc(-c4ccc(-c5cccc6c5CCC[C@H]6NC(=O)[C@@H]5CCCN5C(=O)[C@@H](NC(=O)[C@H](C)NC)C5CCCCC5)cc4)cc3)cccc21)C1CCCCC1 [Compound III-G, (S)-1-((S)-2-cyclohexyl-2-((S)-2-(methylamino)propanamido)acetyl)-N—((R)-5-(4′-((R)-5-((S)-1-((S)-2-cyclohexyl-2-((S)-2-(methylamino)propanamido)acetyl)pyrrolidine-2-carboxamido)-5,6,7,8-tetrahydronaphthalen-1-yl)-[1,1′-biphenyl]-4-yl)-1,2,3,4-tetrahydronaphthalen-1-yl)pyrrolidine-2-carboxamide]
10 to 100 nM	10 to 100 nM	1 to 10 nM	CN[C@@H](C)C(=O)N[C@H](C(=O)N1CCC[C@H]1C(=O)N[C@@H]1CCc2c(-c3cccc4c3CC[C@H]4NC(=O)[C@@H]3CCCN3C(=O)[C@@H](NC(=O)[C@H](C)NC)C3CCCCC3)cccc21)C1CCCCC1 [Compound V, (2S)-1-[(2S)-2-cyclohexyl-2-[(2S)-2-(methylamino)propanamido]acetyl]-N-[(1R,1′R)-1′-[(2S)-1-[(2S)-2-cyclohexyl-2-[(2S)-2-(methylamino)propanamido]acetyl]pyrrolidine-2-amido]-1H,1′H,2H,2′H,3H,3′H-[4,4′-biinden]-1-yl]pyrrolidine-2-carboxamide]
100 to 1000 nM	> 1000 nM	10 to 100 nM	CN[C@@H](C)C(=O)N[C@H](C(=O)N1CCC[C@H]1C(=O)N[C@@H]1CCCc2ccc(N3CCN(c4ccc5c(c4)[C@H](NC(=O)[C@@H]4CCCN4C(=O)[C@@H](NC(=O)[C@H](C)NC)C4CCCCC4)CCC5)CC3)cc21)C1CCCCC1 [VIII-A, (2S)-1-[(2S)-2-cyclohexyl-2-[(2S)-2-(methylamino)propanamido]acetyl]-N-[(1R)-7-[4-[(8R)-8-[(2S)-1-[(2S)-2-cyclohexyl-2-[(2S)-2-(methylamino)propanamido]acetyl]pyrrolidine-2-amido]-5,6,7,8-tetrahydronaphthalen-2-yl]piperazin-1-yl]-1,2,3,4-tetrahydronaphthalen-1-yl]pyrrolidine-2-carboxamide]
10 to 100 nM	10 to 100 nM	1 to 10 nM	CC[C@H](NC(=O)[C@H](C)NC)C(=O)N1CCC[C@H]1C(=O)N[C@@H]1CCc2c(-c3cccc4c3CC[C@H]4NC(=O)[C@@H]3CCCN3C(=O)[C@H](CC)NC(=O)[C@H](C)NC)cccc21 [Compound V-O, (2S,2'S)—N,N′-((1R,1′R)-2,2′,3,3′-tetrahydro-1H,1′H-[4,4′-biindene]-1,1′-diyl)bis(1-((S)-2-((S)-2-(methylamino)propanamido)butanoyl)pyrrolidine-2-carboxamide)]
100 to 1000 nM	> 1000 nM	10 to 100 nM	CN[C@@H](C)C(=O)NC(C(=O)N1CCC[C@H]1C(=O)N[C@@H]1CCCc2cc(N3CCN(c4ccc5c(c4)CCC[C@H]5NC(=O)[C@@H]4CCCN4C(=O)[C@@H](NC(=O)[C@H](C)NC)C4CCCCC4)CC3)ccc21)C1CCCCC1 (stereo partly drawn) [VIII-B, (2S)-1-[(2S)-2-cyclohexyl-2-[(2S)-2-(methylamino)propanamido]acetyl]-N-[1(1R)-6-[4-[(5R)-5-[(2S)-1-[(2S)-2-cyclohexyl-2-[(2S)-2-(methylamino)propanamido]acetyl]pyrrolidine-2-amido]-5,6,7,8-tetrahydronaphthalen-2-yl]piperazin-1-yl]-1,2,3,4-tetrahydronaphthalen-1-yl]pyrrolidine-2-carboxamide]
10 to 100 nM	10 to 100 nM	1 to 10 nM	CC[C@H](NC(=O)[C@H](C)NC)C(=O)N1CCC[C@H]1C(=O)N[C@@H]1CCCc2c(NC(=O)c3cccc4c3CCC[C@H]4NC(=O)[C@@H]3CCCN3C(=O)[C@H](CC)NC(=O)[C@H](C)NC)cccc21 [Compound VII-C, (2S)-1-[(2S)-2-[(2S)-2-(methylamino)propanamido]butanoyl]-N-[(1R)-5-[[(5R)-5-[(2S)-1-[(2S)-2-[(2S)-2-(methylamino)propanamido]butanoyl]pyrrolidine-2-amido]-5,6,7,8-tetrahydmnaphthalen-1-yl]carbamoyl]-1,2,3,4-tetrahydmnaphthalen-1-yl]pyrrolidine-2-carboxamide]
10 to 100 nM	10 to 100 nM	1 to 10 nM	CN[C@@H](C)C(=O)N[C@H](C(=O)N1CCC[C@H]1C(=O)N[C@@H]1CCCc2c(-c3ccc4cc(-c5cccc6c5CCC[C@H]6NC(=O)[C@@H]5CCCN5C(=O)[C@@H](NC(=O)[C@H](C)NC)C5CCCCC5)ccc4c3)cccc21)C1CCCCC1 [Compound III-B, (2S)-1-[(2S)-2-Cyclohexyl-2-[(2S)-2-(methylamino)propanamido]acetyl]-N-[(1R)-5-{6-[(5R)-5-[(2S)-1-[(2S)-2-cyclohexyl-2-[(2S)-2-(methylamino)propanamido]acetyl]pyrrolidine-2-amido]-5,6,7,8-tetrahydronaphthalen-1-yl]naphthalen-2-yl}-1,2,3,4-tetrahydmnaphthalen-1-yl]pyrrolidine-2-carboxamide]
1 to 10 nM	10 to 100 nM	1 to 10 nM	CN[C@@H](C)C(=O)N[C@H](C(=O)N1CCC[C@H]1C(=O)N[C@@H]1CCCc2c(NC(=O)c3cccc4c3CCC[C@H]4NC(=O)[C@@H]3CCCN3C(=O)[C@@H](NC(=O)[C@H](C)NC)C(C)C)cccc21)C(C)C [VII-A, (2S)-1-[(2S)-3-methyl-2-[(2S)-2-(methylamino)propanamido]butanoyl]-N-[(1R)-5-[[(5R)-5-[(2S)-1-[(2S)-3-methyl-2-[(2S)-2-(methylamino)propanamido]butanoyl]pyrrolidine-2-amido]-5,6,7,8-tetrahydronaphthalen-1-yl]carbamoyl]-1,2,3,4-tetrahydronaphthalen-1-yl]pyrrolidine-2-carboxamide]
10 to 100 nM	10 to 100 nM	1 to 10 nM	CN[C@@H](C)C(=O)N[C@H](C(=O)N1CCC[C@H]1C(=O)N[C@@H]1CCCc2c(Oc3cccc4c3CCC[C@H]4NC(=O)[C@@H]3CCCN3C(=O)[C@@H](NC(=O)[C@H](C)NC)C3CCOCC3)cccc21)C1CCOCC1 [Compound X-C, (S)-1-((S)-2-((S)-2-(methylamino)propanamido)-2-(tetrahydro-2H-pyran-4-yl)acetyl)-N—((R)-5-(((R)-5-((S)-1-((S)-2-((S)-2-(methylamino)propanamido)-2-(tetrahydro-2H-pyran-4-yl)acetyl)pyrrolidine-2-carboxamido)-5,6,7,8-tetrahydronaphthalen-1-yl)oxy)-1,2,3,4-tetrahydronaphthalen-1-yl)pyrrolidine-2-carboxamide]
